Literature values in patent US20070161636A1, “Method of analyzing physiological function of target substance” (priority 2003, published 2007).
Read-outs that look alike come from different tables or passages of the source.

maximum absorption (max λ) (in ethanol): 523 nm
maximum absorption (max λ) (in water): 517 nm
SMILES: O=C1OC2(c3ccccc31)c1cc(Br)c(O)c(Br)c1Oc1c2cc(Br)c(O)c1Br [eosin, tetrabromofluorescein]
